Measurements as given in PMC6120666 (The EMBO Journal, 2018).

Tests used:
Test in all cases: Drug affinity chromatography with c-ponatinib and LC-MS/MS (ponatinib interactome)
Format in all cases: binding
[1] = molecular target: T1, proteins of U2OS cell lysate (Homo sapiens, UniProt P51665); settings: PSMD7, 26S proteasome non-ATPase regulatory subunit 7
T1 construct: Proteins enriched by c-ponatinib from U2OS cell lysate; endogenous in cells; host or cells: U2OS cell lysate
How it was run: (§1)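 Proteins were identified by nano-UPLC–MS/MS after elution with formic acid and trypsin digestion. They were captured from U2OS lysate (2 mg protein per pulldown, NP-40 buffer) on amine-coupled NHS beads during a 2 h incubation at 4 °C.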

[2] = molecular target: T2, proteins of U2OS cell lysate (Homo sapiens, UniProt Q15233); settings: NONO, Non-POU domain-containing octamer-binding protein
T2 construct: Proteins enriched by c-ponatinib from U2OS cell lysate; endogenous in cells; host or cells: U2OS cell lysate
T2 sequence (Q15233 whole entry, the tested form may be a part): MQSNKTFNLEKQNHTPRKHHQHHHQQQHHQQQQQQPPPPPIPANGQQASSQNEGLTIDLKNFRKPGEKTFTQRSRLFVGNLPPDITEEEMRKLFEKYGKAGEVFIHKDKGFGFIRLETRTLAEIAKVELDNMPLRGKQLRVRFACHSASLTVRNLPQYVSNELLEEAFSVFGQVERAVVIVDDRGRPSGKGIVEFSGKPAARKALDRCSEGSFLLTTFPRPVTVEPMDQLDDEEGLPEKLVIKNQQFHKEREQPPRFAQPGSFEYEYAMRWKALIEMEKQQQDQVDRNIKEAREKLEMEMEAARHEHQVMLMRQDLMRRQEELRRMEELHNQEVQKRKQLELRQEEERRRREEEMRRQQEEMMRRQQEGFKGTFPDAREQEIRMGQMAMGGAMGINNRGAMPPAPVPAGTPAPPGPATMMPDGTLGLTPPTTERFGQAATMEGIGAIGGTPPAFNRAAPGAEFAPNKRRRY
How it was run: as §1

[3] = molecular target: T3, proteins of U2OS cell lysate (Homo sapiens, UniProt P51610); settings: HCFC1, Host cell factor 1
T3 construct: Proteins enriched by c-ponatinib from U2OS cell lysate; endogenous in cells; host or cells: U2OS cell lysate
How it was run: as §1

[4] = molecular target: T4, proteins of U2OS cell lysate (Homo sapiens, UniProt P08559); settings: PDHA1, Pyruvate dehydrogenase E1 component subunit alpha, somatic form, mitochondrial
T4 construct: Proteins enriched by c-ponatinib from U2OS cell lysate; endogenous in cells; host or cells: U2OS cell lysate
T4 sequence (P08559 30-390): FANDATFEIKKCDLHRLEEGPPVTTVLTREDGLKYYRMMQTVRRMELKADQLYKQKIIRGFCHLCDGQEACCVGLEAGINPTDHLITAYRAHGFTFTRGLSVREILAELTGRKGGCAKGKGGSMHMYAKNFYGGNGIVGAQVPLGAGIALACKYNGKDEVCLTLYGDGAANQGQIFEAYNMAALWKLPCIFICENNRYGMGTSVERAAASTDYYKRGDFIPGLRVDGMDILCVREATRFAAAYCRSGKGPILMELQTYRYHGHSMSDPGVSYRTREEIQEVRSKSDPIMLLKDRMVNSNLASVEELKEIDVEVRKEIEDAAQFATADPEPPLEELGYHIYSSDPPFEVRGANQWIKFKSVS
How it was run: as §1

[5] = molecular target: T5, proteins of U2OS cell lysate (Homo sapiens, UniProt P31946); settings: YWHAB, 14-3-3 protein beta/alpha
T5 construct: Proteins enriched by c-ponatinib from U2OS cell lysate; endogenous in cells; host or cells: U2OS cell lysate
How it was run: as §1

[6] = molecular target: T6, proteins of U2OS cell lysate (Homo sapiens, UniProt P06748); settings: NPM1, Nucleophosmin
T6 construct: Proteins enriched by c-ponatinib from U2OS cell lysate; endogenous in cells; host or cells: U2OS cell lysate
How it was run: as §1

[7] = molecular target: T7, proteins of U2OS cell lysate (Homo sapiens, UniProt P07814); settings: EPRS, Bifunctional glutamate/proline--tRNA ligase
T7 construct: Proteins enriched by c-ponatinib from U2OS cell lysate; endogenous in cells; host or cells: U2OS cell lysate
How it was run: as §1

[8] = molecular target: T8, proteins of U2OS cell lysate (Homo sapiens, UniProt P35998); settings: PSMC2, 26S protease regulatory subunit 7
T8 construct: Proteins enriched by c-ponatinib from U2OS cell lysate; endogenous in cells; host or cells: U2OS cell lysate
T8 sequence (P35998 whole entry): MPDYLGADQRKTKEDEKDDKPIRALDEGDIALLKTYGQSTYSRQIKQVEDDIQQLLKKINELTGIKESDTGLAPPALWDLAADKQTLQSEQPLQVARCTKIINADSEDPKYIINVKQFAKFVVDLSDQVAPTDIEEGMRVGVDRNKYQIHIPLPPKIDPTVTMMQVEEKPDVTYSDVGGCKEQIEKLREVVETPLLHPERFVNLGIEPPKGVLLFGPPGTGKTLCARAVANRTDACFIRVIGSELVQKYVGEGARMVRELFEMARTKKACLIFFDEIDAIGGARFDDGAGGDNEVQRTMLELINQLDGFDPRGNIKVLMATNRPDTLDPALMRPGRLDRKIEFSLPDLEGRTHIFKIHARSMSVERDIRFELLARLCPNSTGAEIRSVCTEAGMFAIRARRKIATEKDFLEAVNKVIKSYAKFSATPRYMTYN
How it was run: as §1

[9] = molecular target: T9, proteins of U2OS cell lysate (Homo sapiens, UniProt Q9UMS4); settings: PRPF19, Pre-mRNA-processing factor 19
T9 construct: Proteins enriched by c-ponatinib from U2OS cell lysate; endogenous in cells; host or cells: U2OS cell lysate
T9 sequence (Q9UMS4 whole entry): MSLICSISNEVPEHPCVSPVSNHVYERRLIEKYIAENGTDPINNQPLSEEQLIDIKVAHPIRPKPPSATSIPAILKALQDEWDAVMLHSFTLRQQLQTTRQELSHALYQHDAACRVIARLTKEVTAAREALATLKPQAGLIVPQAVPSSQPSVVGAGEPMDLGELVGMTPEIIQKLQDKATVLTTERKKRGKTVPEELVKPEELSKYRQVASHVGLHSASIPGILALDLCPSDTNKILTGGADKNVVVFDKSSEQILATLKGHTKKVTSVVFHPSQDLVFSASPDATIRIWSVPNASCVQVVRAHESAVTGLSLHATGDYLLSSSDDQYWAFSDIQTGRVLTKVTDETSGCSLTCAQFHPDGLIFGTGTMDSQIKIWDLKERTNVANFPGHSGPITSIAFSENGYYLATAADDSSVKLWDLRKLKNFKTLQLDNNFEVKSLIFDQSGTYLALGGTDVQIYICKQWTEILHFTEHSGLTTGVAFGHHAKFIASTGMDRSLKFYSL
How it was run: as §1

[10] = molecular target: T10, proteins of U2OS cell lysate (Homo sapiens, UniProt P23284); settings: PPIB, Peptidyl-prolyl cis-trans isomerase B
T10 construct: Proteins enriched by c-ponatinib from U2OS cell lysate; endogenous in cells; host or cells: U2OS cell lysate
How it was run: as §1

[11] = molecular target: T11, proteins of U2OS cell lysate (Homo sapiens, UniProt P46783); settings: RPS10;RPS10P5, 40S ribosomal protein S10
T11 construct: Proteins enriched by c-ponatinib from U2OS cell lysate; endogenous in cells; host or cells: U2OS cell lysate
How it was run: as §1

[12] = molecular target: T12, proteins of U2OS cell lysate (Homo sapiens, UniProt P38646); settings: HSPA9, Stress-70 protein, mitochondrial
T12 construct: Proteins enriched by c-ponatinib from U2OS cell lysate; endogenous in cells; host or cells: U2OS cell lysate
T12 sequence (P38646 47-679): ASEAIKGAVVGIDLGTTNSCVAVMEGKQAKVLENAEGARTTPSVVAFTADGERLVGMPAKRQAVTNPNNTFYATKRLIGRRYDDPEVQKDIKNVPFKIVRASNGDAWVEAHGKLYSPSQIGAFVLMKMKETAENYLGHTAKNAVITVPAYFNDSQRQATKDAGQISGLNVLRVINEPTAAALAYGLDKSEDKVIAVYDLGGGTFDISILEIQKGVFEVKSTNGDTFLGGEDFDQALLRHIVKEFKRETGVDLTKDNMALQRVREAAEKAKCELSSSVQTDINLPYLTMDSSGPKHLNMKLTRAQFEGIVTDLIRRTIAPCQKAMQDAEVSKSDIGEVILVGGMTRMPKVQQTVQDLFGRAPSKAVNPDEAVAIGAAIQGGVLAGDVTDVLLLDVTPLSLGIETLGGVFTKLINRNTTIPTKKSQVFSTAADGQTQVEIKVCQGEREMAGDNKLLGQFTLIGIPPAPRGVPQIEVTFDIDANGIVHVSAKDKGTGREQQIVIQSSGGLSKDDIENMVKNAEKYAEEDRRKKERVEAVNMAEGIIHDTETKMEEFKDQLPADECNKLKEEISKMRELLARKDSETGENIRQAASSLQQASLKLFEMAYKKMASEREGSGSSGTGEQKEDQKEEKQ
How it was run: as §1

[13] = molecular target: T13, proteins of U2OS cell lysate (Homo sapiens, UniProt Q92973); settings: TNPO1, Transportin-1
T13 construct: Proteins enriched by c-ponatinib from U2OS cell lysate; endogenous in cells; host or cells: U2OS cell lysate
T13 sequence (Q92973 whole entry): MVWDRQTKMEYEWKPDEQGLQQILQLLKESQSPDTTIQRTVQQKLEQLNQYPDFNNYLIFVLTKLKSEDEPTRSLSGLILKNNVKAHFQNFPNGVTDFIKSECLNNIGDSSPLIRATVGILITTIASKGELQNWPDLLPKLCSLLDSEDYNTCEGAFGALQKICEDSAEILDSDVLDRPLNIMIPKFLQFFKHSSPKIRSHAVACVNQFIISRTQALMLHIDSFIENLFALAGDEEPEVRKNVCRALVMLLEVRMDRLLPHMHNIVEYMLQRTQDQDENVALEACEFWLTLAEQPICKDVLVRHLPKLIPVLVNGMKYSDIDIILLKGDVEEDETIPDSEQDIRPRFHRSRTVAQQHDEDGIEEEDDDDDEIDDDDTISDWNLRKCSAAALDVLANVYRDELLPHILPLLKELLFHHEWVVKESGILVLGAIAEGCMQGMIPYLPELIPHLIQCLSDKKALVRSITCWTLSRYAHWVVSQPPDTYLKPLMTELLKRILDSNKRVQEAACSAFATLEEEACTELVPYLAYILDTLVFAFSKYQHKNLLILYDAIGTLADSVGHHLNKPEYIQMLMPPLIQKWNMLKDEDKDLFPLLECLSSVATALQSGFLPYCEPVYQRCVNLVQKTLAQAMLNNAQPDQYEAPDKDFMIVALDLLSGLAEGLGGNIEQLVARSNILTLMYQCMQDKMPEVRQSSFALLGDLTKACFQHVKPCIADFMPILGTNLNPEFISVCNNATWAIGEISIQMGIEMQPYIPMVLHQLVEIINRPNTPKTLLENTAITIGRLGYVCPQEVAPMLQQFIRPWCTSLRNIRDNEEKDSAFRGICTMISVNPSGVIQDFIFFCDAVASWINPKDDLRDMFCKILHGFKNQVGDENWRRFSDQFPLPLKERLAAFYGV
How it was run: as §1

[14] = molecular target: T14, proteins of U2OS cell lysate (Homo sapiens, UniProt P60660); settings: MYL6, Myosin light polypeptide 6
T14 construct: Proteins enriched by c-ponatinib from U2OS cell lysate; endogenous in cells; host or cells: U2OS cell lysate
How it was run: as §1

[15] = molecular target: T15, proteins of U2OS cell lysate (Homo sapiens, UniProt Q01650); settings: SLC7A5, Large neutral amino acids transporter small subunit 1
T15 construct: Proteins enriched by c-ponatinib from U2OS cell lysate; endogenous in cells; host or cells: U2OS cell lysate
How it was run: as §1

[16] = molecular target: T16, proteins of U2OS cell lysate (Homo sapiens, UniProt O00264); settings: PGRMC1, Membrane-associated progesterone receptor component 1
T16 construct: Proteins enriched by c-ponatinib from U2OS cell lysate; endogenous in cells; host or cells: U2OS cell lysate
How it was run: as §1

[17] = molecular target: T17, proteins of U2OS cell lysate (Homo sapiens, UniProt P26641); settings: EEF1G, Elongation factor 1-gamma
T17 construct: Proteins enriched by c-ponatinib from U2OS cell lysate; endogenous in cells; host or cells: U2OS cell lysate
How it was run: as §1

[18] = molecular target: T18, proteins of U2OS cell lysate (Homo sapiens, UniProt Q13200); settings: captured protein PSMD2, Rank 205
T18 construct: Proteins enriched by c-ponatinib from U2OS cell lysate; endogenous in cells; host or cells: U2OS cell lysate
T18 sequence (Q13200 whole entry): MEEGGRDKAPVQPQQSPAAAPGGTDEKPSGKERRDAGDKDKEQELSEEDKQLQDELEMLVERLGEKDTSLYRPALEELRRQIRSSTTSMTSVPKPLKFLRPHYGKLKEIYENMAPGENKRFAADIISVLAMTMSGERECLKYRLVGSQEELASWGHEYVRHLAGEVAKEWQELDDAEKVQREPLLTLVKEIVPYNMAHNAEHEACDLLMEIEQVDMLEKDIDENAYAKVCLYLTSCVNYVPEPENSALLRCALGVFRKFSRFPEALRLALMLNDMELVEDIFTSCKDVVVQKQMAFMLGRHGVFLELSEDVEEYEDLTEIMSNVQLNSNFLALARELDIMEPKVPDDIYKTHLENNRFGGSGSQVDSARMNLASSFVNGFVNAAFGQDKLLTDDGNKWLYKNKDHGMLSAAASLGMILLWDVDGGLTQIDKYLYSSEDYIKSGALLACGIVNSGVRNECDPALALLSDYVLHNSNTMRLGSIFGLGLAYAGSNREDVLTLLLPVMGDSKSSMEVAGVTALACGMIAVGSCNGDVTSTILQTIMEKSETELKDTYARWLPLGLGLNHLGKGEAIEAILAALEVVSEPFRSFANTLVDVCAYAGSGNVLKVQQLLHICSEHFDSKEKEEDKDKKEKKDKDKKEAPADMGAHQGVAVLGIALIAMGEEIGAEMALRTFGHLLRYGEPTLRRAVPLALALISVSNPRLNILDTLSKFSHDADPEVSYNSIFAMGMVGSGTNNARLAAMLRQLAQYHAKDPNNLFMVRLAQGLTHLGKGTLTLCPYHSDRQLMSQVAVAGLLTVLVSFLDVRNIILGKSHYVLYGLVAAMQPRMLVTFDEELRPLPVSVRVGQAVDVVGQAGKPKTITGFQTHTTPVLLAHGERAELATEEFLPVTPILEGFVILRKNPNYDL
How it was run: as §1

[19] = molecular target: T19, proteins of U2OS cell lysate (Homo sapiens, UniProt Q00839); settings: captured protein HNRNPU, Rank 192
T19 construct: Proteins enriched by c-ponatinib from U2OS cell lysate; endogenous in cells; host or cells: U2OS cell lysate
T19 sequence (Q00839 whole entry): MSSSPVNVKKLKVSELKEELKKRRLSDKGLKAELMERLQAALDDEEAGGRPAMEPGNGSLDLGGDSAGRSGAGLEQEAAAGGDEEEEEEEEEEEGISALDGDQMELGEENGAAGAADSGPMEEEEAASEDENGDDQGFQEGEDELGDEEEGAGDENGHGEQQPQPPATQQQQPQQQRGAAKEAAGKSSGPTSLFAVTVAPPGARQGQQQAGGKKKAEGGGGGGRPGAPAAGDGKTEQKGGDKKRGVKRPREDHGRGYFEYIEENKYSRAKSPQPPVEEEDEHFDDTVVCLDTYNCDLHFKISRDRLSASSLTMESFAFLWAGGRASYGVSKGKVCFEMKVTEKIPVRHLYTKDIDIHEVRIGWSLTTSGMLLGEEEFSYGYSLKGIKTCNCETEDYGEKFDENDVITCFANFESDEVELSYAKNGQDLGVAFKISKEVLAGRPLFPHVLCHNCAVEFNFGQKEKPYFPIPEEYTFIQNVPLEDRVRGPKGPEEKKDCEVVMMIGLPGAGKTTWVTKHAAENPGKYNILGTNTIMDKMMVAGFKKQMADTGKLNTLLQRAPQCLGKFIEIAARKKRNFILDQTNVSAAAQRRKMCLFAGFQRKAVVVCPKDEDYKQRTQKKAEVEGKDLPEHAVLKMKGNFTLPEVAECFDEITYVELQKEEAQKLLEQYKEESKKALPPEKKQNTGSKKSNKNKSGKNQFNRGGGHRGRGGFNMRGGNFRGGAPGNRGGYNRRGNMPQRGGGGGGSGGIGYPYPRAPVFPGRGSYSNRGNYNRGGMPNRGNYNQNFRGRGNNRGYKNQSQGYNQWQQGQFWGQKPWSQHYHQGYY
How it was run: as §1

## Cc1ccc(C(=O)Nc2ccc(CN3CCN(C)CC3)c(C(F)(F)F)c2)cc1C#Cc1cnc2cccnn12 [PON]
[1]
  Average LFQ PON_WT: 21.0889
[2]
  Average LFQ PON_WT: 20.9839
[3]
  Average LFQ PON_WT: 21.0295
[4]
  Average LFQ PON_WT: 21.0192
[5]
  Average LFQ PON_WT: 23.524
[6]
  Average LFQ PON_WT: 21.1903
[7]
  Average LFQ PON_WT: 20.1996
[8]
  Average LFQ PON_WT: 21.2631
[9]
  Average LFQ PON_WT: 21.24
[10]
  Average LFQ PON_WT: 20.4971
[11]
  Average LFQ PON_WT: 21.6692
[12]
  Average LFQ PON_WT: 24.6608
[13]
  Average LFQ PON_WT: 24.7772
[14]
  Average LFQ PON_WT: 23.7934
[15]
  Average LFQ PON_WT: 21.4059
[16]
  Average LFQ PON_WT: 23.2724
[17]
  Average LFQ PON_WT: 25.0677

## Cc1ccc(C(=O)Nc2ccc(CN3CCN(CCCN)CC3)c(C(F)(F)F)c2)cc1C#Cc1cnc2cccnn12 [c-ponatinib, reference compound]
[18]
  Average LFQ intensity: 21.768
[19]
  Average LFQ intensity: 21.9786
